Assays:
washed platelets = experiment: 14C-arachidonic acid metabolism by washed platelets (TLC); format: cell-based, human
Procedure: Washed platelets (400 μl) prepared as above were placed in a cuvette. Either vehicle (50 μl), isoquinoline test compound, or indomethacin was then added. After incubation for 55 seconds at 37° C., 50 μl of calcium chloride (5 mM) was added and, at 60 seconds, 50 μl of ^14 C-arachidonic acid (0.1 μCi, 0.4 mM) was added. Four minutes later, 80 μl of 10% formic acid was added to stop the reaction. The contents were then poured into 6.5 ml of ice-cold ethyl acetate and the cuvette was further rinsed twice with 1 ml of ethyl acetate. The samples were subsequently extracted as previously described. The dried extract was reconstituted in chloroform:methanol (2:1) and spotted onto TLC plates. PGE2 PGF2α, TXB2 (20 μg of each) were spotted as the reference. The plates were developed in a chloroform:methanol, acetic acid, water (90:8:1:0.8) solution. […] Each plate was visualized with iodine vapor, the Rf s noted and then 1 cm zones scraped and counted in a Beckman Liquid Scintillation spectrometer.

platelet rich plasma [1] = experiment: arachidonic acid induced platelet aggregation in platelet rich plasma (Born aggregometry); format: cell-based, human
Procedure: (§1) The specific inhibitory activity of the present compounds can be determined by the following procedures. For platelet aggregation, blood was collected from normal volunteers into sodium citrate (3.8% w/v) 9:1. The indicated volunteers had not ingested aspirin or other non-steroidal anti-inflammatory drugs for at least 7 days. Platelet rich plasma was prepared from the blood by centrifugation at 200×g for 15 minutes. This plasma was centrifuged at 10,000×g for 2 minutes to obtain platelet poor plasma blank. The platelet rich plasma was incubated at 37° C. for 60 seconds prior to addition of vehicle or compound. The platelet rich plasma was then incubated for an additional 60 seconds prior to the addition of arachidonic acid or ADP. Aliquots (50 μl) were removed at 30 and 60 seconds after the addition of arachidonic acid for determination of iTXB2. Platelet aggregation was monitored in a Model 300 Chronolog aggregometer using the method of Born.

thromboxane synthetase [2] = experiment: iTXB2 production by whole blood after intravenous dosing of rats; format: in vivo, Sprague-Dawley rats; conditions: 30 minutes prior to obtaining blood, female rats
Procedure: Varying doses of the test compound were administered intravenously to female Sprague-Dawley rats weighing between 250-300 g 30 minutes prior to obtaining blood. […] A dose of 10 mg/kg produced approximately a 50% inhibition of iTXB2 production.

microphages = experiment: endogenous arachidonic acid metabolism by microphages; format: cell-based
Procedure: To establish if the test compound was a selective thromboxane synthetase inhibitor or a fatty acid cyclooxygenase inhibitor, the effects of the isoquinoline on endogenous arachidonic acid metabolism by microphages was assessed. […] The effect on i-6-keto-PGFα levels was variable. At a concentration of 500 μm it inhibited i-6-keto-PGFα formation and at 250 μm it increased its formation. At all other concentrations it had no affect.

platelet rich plasma [3] = experiment: ADP induced platelet aggregation in platelet rich plasma (Born aggregometry); format: cell-based, human
Procedure: as §1

thromboxane synthetase [4] = experiment: iTXB2 produced during arachidonic acid induced platelet aggregation; format: cell-based, human; conditions: 1 mM
Procedure: as §1

Row | Structure (SMILES) | inhibition at 50 µM (washed platelets; Homo sapiens, Platelet, 4 min, read-out: reduction of metabolism of arachidonic acid compared to controls) [%] | rate of arachidonic acid induced platelet aggregation (platelet rich plasma [1]; 0.5 mM) | rate of arachidonic acid induced platelet aggregation (platelet rich plasma [1]; 1 mM) | inhibition of iTXB2 production (thromboxane synthetase [2]; 10 mg/kg intravenously) [%] | iTXB2 production by whole blood (thromboxane synthetase [2]; varying doses intravenously) | basal synthesis of iTXB2 by microphages (microphages; 10 μM to 1000 μM) | i-6-keto-PGFα formation (microphages; 250 μm) | i-6-keto-PGFα formation (microphages; 500 μm) | i-6-keto-PGFα formation (microphages; all other concentrations) | iPGE levels (microphages; at most concentrations) | selectivity for thromboxane synthesis (microphages; conclusion from iTXB2, iPGE and i-6-keto-PGFα levels) | ADP induced platelet aggregation as compared to control (platelet rich plasma [3]; 1 mM) | inhibition at 1000 µM (platelet rich plasma [3]; Homo sapiens, Platelet, 1 min, 1000 μM, at 60 seconds, read-out: reduction of ADP aggregation) [%] | percent of arachidonic acid converted to PGE2 (washed platelets; washed platelets) | percentage of arachidonic acid converted to TXB2 (washed platelets; washed platelets) | total amount of arachidonic acid metabolized via the cyclo-oxygenase pathway (washed platelets; washed platelets, versus vehicle controls) | amounts of iTXB2 produced during arachidonic acid induced platelet aggregation (thromboxane synthetase [4]; 30 seconds) | amounts of iTXB2 produced during arachidonic acid induced platelet aggregation (thromboxane synthetase [4]; 60 seconds)
1 | COc1ccc2c(c1)c(CC(=O)O)c(C)n2C(=O)c1ccc(Cl)cc1 [indomethacin, reference compound] | 78 |  |  |  |  |  |  |  |  |  |  |  |  |  |  |  |  | 
2 | O=C(O)c1ccc(NCc2cncc3ccccc23)cc1 [isoquinoline, 4-[(4-isoquinolinylmethyl)amino]benzoic acid] |  | significantly inhibited | significantly inhibited | ~50 | dose dependent reduction | significantly reduced | increased | inhibited | no affect | significantly increased | appears to selectively inhibit thromboxane synthesis | marked effect | 30 | did not affect | reduced | not different from the vehicle controls | significantly reduced | significantly reduced
